Assay results from BindingDB's records for patent US12415816 (Dana-Farber Cancer Institute, 2025).

Biological target: Tyrosine-protein kinase JAK2 (Homo sapiens, UniProt O60674)
Test: Biochemical Assay
Protocol: The JAK2 Z-Lyte biochemical assay was performed according to manufacturer's instructions (Life Technologies).

Sequence of Tyrosine-protein kinase JAK2 (O60674 whole entry): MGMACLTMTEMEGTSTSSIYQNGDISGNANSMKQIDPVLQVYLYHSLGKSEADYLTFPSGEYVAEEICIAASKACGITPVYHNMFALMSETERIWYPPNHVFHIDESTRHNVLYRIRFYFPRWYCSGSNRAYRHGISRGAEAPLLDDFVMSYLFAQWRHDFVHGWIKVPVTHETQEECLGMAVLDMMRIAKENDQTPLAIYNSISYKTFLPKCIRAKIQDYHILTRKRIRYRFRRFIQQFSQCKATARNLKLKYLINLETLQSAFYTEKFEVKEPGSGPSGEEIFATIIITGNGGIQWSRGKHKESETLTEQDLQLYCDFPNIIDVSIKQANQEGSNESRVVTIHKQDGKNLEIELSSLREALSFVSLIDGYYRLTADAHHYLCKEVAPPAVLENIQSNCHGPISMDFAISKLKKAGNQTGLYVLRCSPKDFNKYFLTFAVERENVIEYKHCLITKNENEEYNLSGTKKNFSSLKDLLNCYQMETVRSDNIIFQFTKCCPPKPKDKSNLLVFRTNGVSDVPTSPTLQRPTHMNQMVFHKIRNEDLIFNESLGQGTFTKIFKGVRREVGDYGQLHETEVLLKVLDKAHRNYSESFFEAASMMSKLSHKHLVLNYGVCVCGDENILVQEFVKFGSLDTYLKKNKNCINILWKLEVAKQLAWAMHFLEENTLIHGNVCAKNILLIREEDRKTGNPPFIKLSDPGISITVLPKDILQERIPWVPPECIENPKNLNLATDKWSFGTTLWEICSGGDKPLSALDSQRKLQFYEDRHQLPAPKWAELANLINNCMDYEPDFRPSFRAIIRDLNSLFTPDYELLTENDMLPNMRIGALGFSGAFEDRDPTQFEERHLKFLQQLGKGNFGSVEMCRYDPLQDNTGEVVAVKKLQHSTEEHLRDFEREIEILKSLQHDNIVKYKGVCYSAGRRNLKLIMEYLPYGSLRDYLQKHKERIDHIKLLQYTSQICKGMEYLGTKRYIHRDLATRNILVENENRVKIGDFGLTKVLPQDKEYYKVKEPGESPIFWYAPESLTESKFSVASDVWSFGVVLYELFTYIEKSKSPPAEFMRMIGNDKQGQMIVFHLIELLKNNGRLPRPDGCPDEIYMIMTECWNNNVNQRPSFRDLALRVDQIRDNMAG

- IC50: 1450 nM
Structure (SMILES): CCN1CCN(Cc2cc(NC(=O)Nc3ccc(C)c(Oc4ccc5nc(NC(=O)C6CC6)sc5n4)c3)cc(C(F)(F)F)c2)CC1 [US12415816, Compound I-18]
